Measurements as given in US10053455B2, “Diazaspiroalkaneone-substituted oxazole derivatives as spleen tyrosine kinase inhibitors” (AB SCIENCE, priority 2014, dated 2018).

Legend:
VEGFR1 = VEGFR1 (Homo sapiens (Human), UniProt P17948); assay: HTRF kinase assay, VEGFR1; assay type: biochemical; details: enzymatic determination
Protocol: (§1) Most of the kinases tested in this study were cloned, expressed and purified in the facilities of the inventors. They were expressed either as N-terminus hexahistidine-, hexahistidine-asparagine- or GST-tagged enzymes in a baculovirus or in a Colibacille expression system. Remaining enzymes (JAKs) were purchased from Millipore or Proqinase. For each enzyme, steady state kinetic parameters were determined and validated with known inhibitors.
(§2) The analysis of the effect of compounds on kinase activity was assessed with the HTRF® KinEASE assay (Cisbio International), an immuno-assay based on the quantification of the level of phosphorylation of a biotinylated peptide substrate using anti-phospho-specific antibody labeled with Europium (Eu^3+) cryptate. This assay comprises two steps: —an enzymatic step, during which the peptide substrate, the kinase, ATP, Mg^2+ and/or Mn^2+ are incubated with varying concentration of drug (from 0 to 10 μM); —a detection step, at the end of the reaction (stopped by addition of EDTA which chelates Mg^2+), the antibody anti-phospho peptide-Eu^3+ (emission 620 nm) and streptavidin XL-665 (emission 665 nm) are added to the reaction mix. […] Results are expressed in delta fluorescence (DF) unit defined as follow DF %=[(ratio−ratio blank)/(ratio blank)]*100, where ratio=(665 nm/620 nm)*10^4. […]

c-Met = c-Met (Homo sapiens (Human), UniProt P08581); assay: HTRF kinase assay, c-Met; assay type: biochemical; details: enzymatic determination
Protocol: as §1, §2

BCR-ABL = BCR-ABL (Homo sapiens, UniProt P00519); assay: Cell-based proliferation assay on BaF3 model, BCR-ABL
Protocol: Cell-based proliferation and viability assay CellTiter-Bleue cell-based survival/proliferation assay (Promega G8080) was performed on BaF3 models. […] Cells were grown for 48-72 h at 37° C. and then incubated with 10 μl/well of Promega CellTiter-Bleue reagent for 4 h at 37° C. The amount of formazan dye formed was quantified by its absorbance at 450 nm using a scanning multiwell spectrophotometer (POLARstar Omega, BMG labtech, France). A blank well without cells was used as a background control for the spectrophotometer and all assays were performed in duplicates and the experiments were repeated at least twice.

[1] = tested on: Salmonella typhimurium strain TA98; assay: AMES mutagenic assay, TA98 strain
Protocol: (§3) Mutagenic activity of test compounds and their metabolites (produced by rat liver S9 fraction) was evaluated in the Salmonella typhimurium strains TA100 and TA98 according to the Ames assay (Toxicology in vitro, (2001), 15: 105-114). […] The results are expressed as a mutagenicity ratio in comparison to solvent controls.
(§4) The results are expressed as a ratio of the number of colonies over the number of colonies in the negative control (DMSO).

[2] = tested on: Murine bone marrow mast cells (BMMCs); assay: IgE-mediated mast cell degranulation assay (β-hexosaminidase release); assay type: cell-based, C57BL/6J mice; details: Mus musculus, BMMC
Protocol: In vitro mast cell degranulation assay monitored by released of β-hexosaminidase. Murine bone marrow mast cells (BMMCs) are obtained by flushing bone marrow cells from the femurs of C57BL/6J mice, then cultured for 3-4 weeks in RPMI containing mouse recombinant IL-3 (30 ng/ml). RBL-2H3 is a rat basophile cell line maintained in monolayer culture in EMEM supplemented with 20% FCS, 1 mM Glutamine and 1× antibiotics. Cells were sensitized overnight with 0.2 μg/ml anti-DNP-IgE (Sigma-Aldrich D8406). […] After incubation 90 min at 37° C., the reaction was quenched by addition of 100 μl of sodium carbonate buffer (0.1M Na2CO3/NaHCO3 pH 10.0). β-hexosaminidase activity was quantified by reading plate absorbance at 405 nm with reference at 620 nm using a PolarSTAR reader plate (BMG labech).
The activity of anti-SYK compounds was tested in an IgE-mediated mast cell degranulation assay. SYK has been identified to be critical for the initiation of mast cell mediator release following the aggregation of FcεRI.

Btk = Btk (Homo sapiens (Human), UniProt Q06187); assay: HTRF kinase assay, Btk; assay type: biochemical; details: enzymatic determination
Protocol: as §1, §2

[3] = tested on: Salmonella typhimurium strain TA100
Protocol: as §3, §4

[4] = TA98, absence of S-9, 0.5 μg per well
[5] = TA98, absence of S-9, 1.4 μg per well
[6] = TA98, absence of S-9, 4.1 μg per well
[7] = TA98, absence of S-9, 12.3 μg per well
[8] = TA98, absence of S-9, 37 μg per well
[9] = TA98, absence of S-9, 111.1 μg per well
[10] = TA98, absence of S-9, 333.3 μg per well
[11] = TA98, absence of S-9, 1000 μg per well
[12] = TA98, presence of S-9, 0.5 μg per well
[13] = TA98, presence of S-9, 1.4 μg per well
[14] = TA98, presence of S-9, 4.1 μg per well
[15] = TA98, presence of S-9, 12.3 μg per well
[16] = TA98, presence of S-9, 37 μg per well
[17] = TA98, presence of S-9, 111.1 μg per well
[18] = TA98, presence of S-9, 333.3 μg per well
[19] = TA98, presence of S-9, 1000 μg per well

Chain of c-Met (P08581 25-1390): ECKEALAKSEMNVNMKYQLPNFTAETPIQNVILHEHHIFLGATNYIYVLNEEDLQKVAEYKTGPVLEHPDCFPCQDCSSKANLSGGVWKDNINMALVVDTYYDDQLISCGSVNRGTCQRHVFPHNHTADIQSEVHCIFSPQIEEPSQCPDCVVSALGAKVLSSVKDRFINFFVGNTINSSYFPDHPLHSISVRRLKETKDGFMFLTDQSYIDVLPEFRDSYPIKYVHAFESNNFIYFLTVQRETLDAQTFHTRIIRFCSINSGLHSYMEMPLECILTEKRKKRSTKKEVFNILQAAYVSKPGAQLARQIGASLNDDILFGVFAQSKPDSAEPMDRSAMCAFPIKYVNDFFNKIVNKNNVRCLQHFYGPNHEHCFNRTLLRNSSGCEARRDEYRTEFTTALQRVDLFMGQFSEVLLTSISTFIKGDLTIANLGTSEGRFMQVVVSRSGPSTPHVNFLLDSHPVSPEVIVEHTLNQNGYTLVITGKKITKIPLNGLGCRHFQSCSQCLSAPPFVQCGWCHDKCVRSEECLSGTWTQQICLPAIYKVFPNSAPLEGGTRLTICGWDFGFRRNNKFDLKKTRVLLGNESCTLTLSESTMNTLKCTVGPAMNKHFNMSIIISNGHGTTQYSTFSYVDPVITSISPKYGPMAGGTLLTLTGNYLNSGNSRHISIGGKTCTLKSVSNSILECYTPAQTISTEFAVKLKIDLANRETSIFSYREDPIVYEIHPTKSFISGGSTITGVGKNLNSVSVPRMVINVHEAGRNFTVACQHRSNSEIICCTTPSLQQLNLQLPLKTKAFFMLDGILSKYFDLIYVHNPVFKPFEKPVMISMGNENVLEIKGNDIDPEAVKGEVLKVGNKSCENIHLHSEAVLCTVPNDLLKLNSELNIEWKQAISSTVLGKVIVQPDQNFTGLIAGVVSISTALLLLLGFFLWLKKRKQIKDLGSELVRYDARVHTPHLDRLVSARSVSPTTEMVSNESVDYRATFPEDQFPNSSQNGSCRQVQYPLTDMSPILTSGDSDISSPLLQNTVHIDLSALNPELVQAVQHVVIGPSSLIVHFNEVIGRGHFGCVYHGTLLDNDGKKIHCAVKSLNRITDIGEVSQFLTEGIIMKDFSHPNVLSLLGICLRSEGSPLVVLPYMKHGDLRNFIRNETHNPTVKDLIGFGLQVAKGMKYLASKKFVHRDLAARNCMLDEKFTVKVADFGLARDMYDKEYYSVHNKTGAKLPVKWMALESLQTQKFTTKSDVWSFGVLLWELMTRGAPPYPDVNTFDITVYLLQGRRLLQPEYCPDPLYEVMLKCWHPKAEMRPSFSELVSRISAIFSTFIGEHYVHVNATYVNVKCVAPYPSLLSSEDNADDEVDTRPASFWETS
Chain of BCR-ABL (P00519 whole entry, looked up, stated change not applied): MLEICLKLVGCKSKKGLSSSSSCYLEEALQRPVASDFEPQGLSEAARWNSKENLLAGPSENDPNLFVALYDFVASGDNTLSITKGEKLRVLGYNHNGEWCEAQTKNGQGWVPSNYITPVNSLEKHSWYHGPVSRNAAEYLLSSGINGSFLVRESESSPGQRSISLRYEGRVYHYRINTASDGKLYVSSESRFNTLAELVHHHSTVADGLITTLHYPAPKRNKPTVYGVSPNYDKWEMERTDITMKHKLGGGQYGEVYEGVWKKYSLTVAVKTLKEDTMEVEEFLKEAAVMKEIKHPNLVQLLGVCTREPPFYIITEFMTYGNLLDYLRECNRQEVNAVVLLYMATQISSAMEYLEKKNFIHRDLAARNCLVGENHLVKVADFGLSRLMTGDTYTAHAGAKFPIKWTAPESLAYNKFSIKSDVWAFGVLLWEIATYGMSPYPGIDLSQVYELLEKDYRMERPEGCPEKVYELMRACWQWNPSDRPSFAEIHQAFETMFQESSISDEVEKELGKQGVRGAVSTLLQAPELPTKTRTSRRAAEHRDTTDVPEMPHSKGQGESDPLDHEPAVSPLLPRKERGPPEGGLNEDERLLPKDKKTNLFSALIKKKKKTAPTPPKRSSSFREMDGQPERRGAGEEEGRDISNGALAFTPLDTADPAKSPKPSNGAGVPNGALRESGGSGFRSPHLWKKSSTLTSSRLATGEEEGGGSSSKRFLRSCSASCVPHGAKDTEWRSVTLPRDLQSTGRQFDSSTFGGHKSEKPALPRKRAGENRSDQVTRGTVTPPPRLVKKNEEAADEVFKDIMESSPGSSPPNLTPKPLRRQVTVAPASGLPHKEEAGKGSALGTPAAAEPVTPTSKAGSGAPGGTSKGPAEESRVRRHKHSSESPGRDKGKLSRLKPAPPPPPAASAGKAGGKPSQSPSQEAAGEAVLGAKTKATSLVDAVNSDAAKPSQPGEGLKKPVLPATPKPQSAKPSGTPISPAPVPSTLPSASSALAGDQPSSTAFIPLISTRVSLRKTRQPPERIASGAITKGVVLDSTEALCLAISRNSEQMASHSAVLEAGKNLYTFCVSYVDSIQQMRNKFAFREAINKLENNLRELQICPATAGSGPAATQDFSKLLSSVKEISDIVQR
Chain of VEGFR1 (P17948 27-1338, species assumed): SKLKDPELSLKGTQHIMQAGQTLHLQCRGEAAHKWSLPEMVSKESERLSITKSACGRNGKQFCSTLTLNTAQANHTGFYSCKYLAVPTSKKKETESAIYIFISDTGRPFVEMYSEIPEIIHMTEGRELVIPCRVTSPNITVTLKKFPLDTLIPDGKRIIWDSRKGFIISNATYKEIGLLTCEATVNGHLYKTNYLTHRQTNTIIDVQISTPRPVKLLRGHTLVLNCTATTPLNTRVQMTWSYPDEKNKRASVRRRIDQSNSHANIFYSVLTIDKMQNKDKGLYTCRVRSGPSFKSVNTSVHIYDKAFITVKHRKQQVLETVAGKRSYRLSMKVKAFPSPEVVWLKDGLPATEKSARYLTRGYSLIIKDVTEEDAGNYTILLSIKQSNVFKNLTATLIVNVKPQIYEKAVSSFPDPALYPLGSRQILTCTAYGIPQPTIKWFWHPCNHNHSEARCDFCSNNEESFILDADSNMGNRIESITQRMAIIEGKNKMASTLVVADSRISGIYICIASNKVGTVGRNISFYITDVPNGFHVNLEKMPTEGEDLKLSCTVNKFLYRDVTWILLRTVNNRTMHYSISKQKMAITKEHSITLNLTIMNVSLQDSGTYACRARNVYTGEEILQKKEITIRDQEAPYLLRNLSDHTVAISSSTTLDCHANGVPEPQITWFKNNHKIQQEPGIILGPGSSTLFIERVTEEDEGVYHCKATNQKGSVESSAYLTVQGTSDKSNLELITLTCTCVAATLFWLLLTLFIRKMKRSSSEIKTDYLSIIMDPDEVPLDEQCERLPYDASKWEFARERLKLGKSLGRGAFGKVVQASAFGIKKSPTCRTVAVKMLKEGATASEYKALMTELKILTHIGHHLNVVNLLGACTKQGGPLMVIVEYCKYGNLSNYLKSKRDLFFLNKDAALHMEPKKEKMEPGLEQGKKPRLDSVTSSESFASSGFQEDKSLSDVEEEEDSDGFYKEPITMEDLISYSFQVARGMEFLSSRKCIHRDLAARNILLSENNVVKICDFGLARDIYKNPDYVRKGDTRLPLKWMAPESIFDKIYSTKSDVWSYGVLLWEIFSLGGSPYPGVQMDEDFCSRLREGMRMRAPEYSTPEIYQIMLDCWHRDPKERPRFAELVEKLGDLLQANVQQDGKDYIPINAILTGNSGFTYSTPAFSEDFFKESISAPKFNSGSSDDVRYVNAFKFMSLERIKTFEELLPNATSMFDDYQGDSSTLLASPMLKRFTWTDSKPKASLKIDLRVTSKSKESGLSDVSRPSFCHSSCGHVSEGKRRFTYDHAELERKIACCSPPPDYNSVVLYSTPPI
Chain of Btk (Q06187 whole entry, species assumed): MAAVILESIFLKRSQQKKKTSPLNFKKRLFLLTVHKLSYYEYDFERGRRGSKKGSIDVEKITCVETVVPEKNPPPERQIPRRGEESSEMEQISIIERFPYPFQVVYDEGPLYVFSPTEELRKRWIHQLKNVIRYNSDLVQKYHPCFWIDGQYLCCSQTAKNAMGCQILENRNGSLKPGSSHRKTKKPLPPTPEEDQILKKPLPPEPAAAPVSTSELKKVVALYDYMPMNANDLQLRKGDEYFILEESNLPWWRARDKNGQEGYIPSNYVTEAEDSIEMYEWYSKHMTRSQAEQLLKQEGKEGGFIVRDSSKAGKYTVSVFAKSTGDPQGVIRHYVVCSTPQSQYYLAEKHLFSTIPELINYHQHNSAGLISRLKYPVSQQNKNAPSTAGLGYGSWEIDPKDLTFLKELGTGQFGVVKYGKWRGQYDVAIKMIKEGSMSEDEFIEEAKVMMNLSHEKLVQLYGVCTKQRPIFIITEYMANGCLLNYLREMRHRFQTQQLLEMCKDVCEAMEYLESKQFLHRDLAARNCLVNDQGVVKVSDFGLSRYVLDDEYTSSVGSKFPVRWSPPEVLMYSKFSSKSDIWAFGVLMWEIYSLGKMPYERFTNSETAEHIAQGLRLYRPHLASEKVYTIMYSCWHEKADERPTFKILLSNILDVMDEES

Structure (SMILES): Cc1ccnc(Nc2cccc(-c3cnc(N4CCNC(=O)C45CC5)o3)c2)n1 [Compound 001, 4-{5-[3-(4-Methyl-pyrimidin-2-ylamino)-phenyl]-oxazol-2-yl}-4,7-diaza-spiro[2.5]octan-8-one]
- IC50 (VEGFR1): 7.5 µM
- IC50 (c-Met): 10 µM
- IC50 (BCR-ABL): 10 µM
- Mean revertant colony counts [1, 4]: 7.3
- Ratio treated/solvent [1, 4]: 1.7
- Mean revertant colony counts [1, 5]: 4.3
- Ratio treated/solvent [1, 5]: 1.0
- Mean revertant colony counts [1, 6]: 6.3
- Ratio treated/solvent [1, 6]: 1.5
- Mean revertant colony counts [1, 7]: 5.3
- Ratio treated/solvent [1, 7]: 1.2
- Mean revertant colony counts [1, 8]: 8.3
- Ratio treated/solvent [1, 8]: 1.9
- Mean revertant colony counts [1, 9]: 6.3
- Ratio treated/solvent [1, 9]: 1.5
- Mean revertant colony counts [1, 10]: 4.3
- Ratio treated/solvent [1, 10]: 1.0
- Mean revertant colony counts [1, 11]: 3.7
- Ratio treated/solvent [1, 11]: 0.8
- Mean revertant colony counts [1, 12]: 10.3
- Ratio treated/solvent [1, 12]: 3.9
- Mean revertant colony counts [1, 13]: 7.3
- Ratio treated/solvent [1, 13]: 2.8
- Mean revertant colony counts [1, 14]: 9.3
- Ratio treated/solvent [1, 14]: 3.5
- Mean revertant colony counts [1, 15]: 6.7
- Ratio treated/solvent [1, 15]: 2.5
- Mean revertant colony counts [1, 16]: 5.7
- Ratio treated/solvent [1, 16]: 2.1
- Mean revertant colony counts [1, 17]: 7.3
- Ratio treated/solvent [1, 17]: 2.8
- Mean revertant colony counts [1, 18]: 6.3
- Ratio treated/solvent [1, 18]: 2.4
- Mean revertant colony counts [1, 19]: 5.0
- Ratio treated/solvent [1, 19]: 1.9
- mutagenic activity ([1]; TA98, with or without liver metabolic activation system (S9 mix)): did not show any mutagenic activity
- activity at 0.01 µM ([2]; 0.01 μM, read-out: β-hexosaminidase activity (% control untreated cells)): 88 ± 14%
- activity at 0.1 µM ([2]; 0.1 μM, read-out: β-hexosaminidase activity (% control untreated cells)): 32 ± 9%
- activity at 1 µM ([2]; 1 μM, read-out: β-hexosaminidase activity (% control untreated cells)): 3 ± 5%
- IC50 ([2]; read-out: inhibiting mast cell degranulation IC50): 0.05 µM
- IC50 (Btk): 20 µM
- mutagenic activity [3]: did not show any mutagenic activity
